Source: US20250129078A1, “ERBB2 INHIBITORS” (Cogent Biosciences, Inc., priority 2023, published 2025)
Counter-ions that a name gives are not always drawn.

Molecular target: EGFR WT (Homo sapiens (Human), UniProt P00533)
Experiment: ErbB enzyme assay (CisBio HTRF-KinEASE-TK), EGFR WT
Assay type: biochemical
Conditions: ATP at Km (25 μM), 1 h incubation
Outline: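 HTRF KinEASE-TK kinase assay, 1 h at ambient temperature with three-fold serial compound dilutions, then 1 h detection with Sa-XL665/TK-Ab-Cryptate. IC50 is the 50 POC point of a 4-parameter logistic fit.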

EGFR WT, sequence (P00533 25-1210): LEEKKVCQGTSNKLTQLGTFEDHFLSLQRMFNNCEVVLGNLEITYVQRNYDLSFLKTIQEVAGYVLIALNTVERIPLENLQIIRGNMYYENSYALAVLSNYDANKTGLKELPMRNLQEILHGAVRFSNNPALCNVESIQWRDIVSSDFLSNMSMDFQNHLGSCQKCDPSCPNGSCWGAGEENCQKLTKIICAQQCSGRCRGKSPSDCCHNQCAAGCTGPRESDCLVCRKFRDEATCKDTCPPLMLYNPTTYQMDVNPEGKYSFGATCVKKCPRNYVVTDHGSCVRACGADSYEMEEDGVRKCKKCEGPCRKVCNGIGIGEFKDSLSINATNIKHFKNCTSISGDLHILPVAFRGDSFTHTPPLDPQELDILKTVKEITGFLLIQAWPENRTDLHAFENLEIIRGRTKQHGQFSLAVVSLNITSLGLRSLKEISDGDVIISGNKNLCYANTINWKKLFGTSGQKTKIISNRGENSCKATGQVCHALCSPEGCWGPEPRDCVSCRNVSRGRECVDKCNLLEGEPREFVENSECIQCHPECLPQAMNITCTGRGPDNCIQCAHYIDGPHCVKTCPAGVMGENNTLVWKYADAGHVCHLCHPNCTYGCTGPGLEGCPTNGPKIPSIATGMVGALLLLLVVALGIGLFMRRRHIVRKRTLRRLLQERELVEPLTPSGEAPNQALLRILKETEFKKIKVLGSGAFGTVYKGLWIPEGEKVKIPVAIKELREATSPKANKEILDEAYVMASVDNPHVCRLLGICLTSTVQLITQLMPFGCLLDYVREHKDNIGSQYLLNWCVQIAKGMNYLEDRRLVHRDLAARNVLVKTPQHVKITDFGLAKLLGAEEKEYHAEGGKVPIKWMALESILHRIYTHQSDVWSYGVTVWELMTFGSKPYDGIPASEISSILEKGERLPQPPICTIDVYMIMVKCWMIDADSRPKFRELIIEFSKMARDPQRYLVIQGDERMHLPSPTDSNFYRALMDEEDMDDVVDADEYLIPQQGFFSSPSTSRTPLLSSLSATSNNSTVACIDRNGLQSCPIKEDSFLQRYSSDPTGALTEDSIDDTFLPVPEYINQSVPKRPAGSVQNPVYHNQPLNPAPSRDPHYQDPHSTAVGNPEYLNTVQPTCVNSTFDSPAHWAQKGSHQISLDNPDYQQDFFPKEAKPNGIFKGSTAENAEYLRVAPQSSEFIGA

| IC50 [nM] | Structure (SMILES) |
| --- | --- |
| ≥ 1000 | C=CC(=O)N1CCC2(CC1)CN(c1ncc3ncnc(Nc4ccc(Oc5ccc6c(c5)nnn6C)c(C)c4)c3n1)C2 [Compound 14, 1-(2-(8-((3-methyl-4-((1-methyl-1H-benzo[d][1,2,3]triazol-5-yl)oxy)phenyl)amino)pyrimido[5,4-d]pyrimidin-2-y1)-2,7-diazaspiro[3.5]nonan-7-yl)prop-2-en-1-one] |
| 500 to 1000 | C=CC(=O)N[C@H]1CCCN(c2ncc3ncnc(Nc4ccc(Oc5ccc6c(c5)nnn6C)c(C)c4F)c3n2)CC1 [Compound 168, (S)-N-(1-(8-((2-fluoro-3-methyl-4-((1-methyl-1H-benzo[d][1,2,3]triazol-5-yl)oxy)phenyl)amino)pyrimido[5,4-d]pyrimidin-2-yl)azepan-4-yl)acrylamide] |
| 500 to 1000 | C=CC(=O)N1CCN(c2ccc3ncnc(Nc4ccc(Oc5ccc6c(c5)nnn6C(F)F)c(C)c4F)c3n2)CC1(C)C [Compound 322, 1-(4-(4-((4-((1-(difluoromethyl)-1H-benzo[d][1,2,3]triazol-5-yl)oxy)-2-fluoro-3-methylphenyl)amino)pyrido[3,2-d]pyrimidin-6-yl)-2,2-dimethylpiperazin-1-yl)prop-2-en-1-one] |
| ≥ 1000 | C=CC(=O)N1CCN(c2ncc3ncnc(Nc4ccc(Oc5ccc6c(c5)nnn6C)c(C)c4)c3n2)C[C@@H]1C(C)C [Compound 122, (S)-1-(2-isopropyl-4-(8-((3-methyl-4-((1-methyl-1H-benzo[d][1,2,3]triazol-5-yl)oxy)phenyl)amino)pyrimido[5,4-d]pyrimidin-2-yl)piperazin-1-y1)prop-2-en-1-one] |
| 50 to 100 | C=CC(=O)N1CCN(c2ccc3ncnc(Nc4ccc(Oc5ccc6c(c5)ncn6C(F)F)c(C)c4F)c3c2)CC1 [Compound 375, 1-(4-(4-((4-((1-(difluoromethyl)-1H-benzo[d]imidazol-5-yl)oxy)-2-fluoro-3-methylphenyl)amino)quinazolin-6-yl)piperazin-1-yl)prop-2-en-1-one] |
| 50 to 100 | Cc1cc(Nc2ncnc3ccc(N4CCN(C(=O)/C=C/C(F)F)[C@H](C)C4)nc23)ccc1Oc1ccc2c(c1)nnn2C [Compound 368, (R,E)-4,4-difluoro-1-(2-methyl-4-(4-((3-methyl-4-((1-methyl-1H-benzo[d][1,2,3]triazol-5-yl)oxy)phenyl)amino)pyrido[3,2-d]pyrimidin-6-yl)piperazin-1-yl)but-2-en-1-one] |
| < 50 | C=CC(=O)N1CC(Oc2ncc3ncnc(Nc4ccc(Oc5ccc6c(c5)ncn6C)c(C)c4)c3n2)C1 [Compound 383, 1-(3-((8-((3-methyl-4-((1-methyl-1H-benzo[d]imidazol-5-yl)oxy)phenyl)amino)pyrimido[5,4-d]pyrimidin-2-yl)oxy)azetidin-1-yl)prop-2-en-1-one] |
| 50 to 100 | C=CC(=O)N1CCN(c2ccc3ncnc(Nc4ccc(Oc5cc6ncnn6cn5)c(C)c4)c3n2)C[C@H]1C [Compound 329, (R)-1-(4-(4-((4-([1,2,4]triazolo[1,5-c]pyrimidin-7-yloxy)-3-methylphenyl)amino)pyrido[3,2-d]pyrimidin-6-yl)-2-methylpiperazin-1-yl)prop-2-en-1-one] |
| < 50 | C=CC(=O)N1CCC(Oc2ncc3ncnc(Nc4ccc(Oc5ccc6c(c5)nnn6C)c(C)c4)c3n2)CC1 [Compound 390, 1-(4-((8-((3-methyl-4-((1-methyl-1H-benzo[d][1,2,3]triazol-5-yl)oxy)phenyl)amino)pyrimido[5,4-d]pyrimidin-2-yl)oxy)piperidin-1-yl)prop-2-en-1-one] |
| 100 to 500 | C=CC(=O)N1CCN(c2ccc3ncnc(Nc4ccc(Oc5cc6nnn(C)c6cc5F)c(C)c4)c3n2)C[C@H]1C [Compound 262, (R)-1-(4-(4-((4-((6-fluoro-1-methyl-1H-benzo[d][1,2,3]triazol-5-yl)oxy)-3-methylphenyl)amino)pyrido[3,2-d]pyrimidin-6-yl)-2-methylpiperazin-1-yl)prop-2-en-1-one] |
| ≥ 1000 | C=CC(=O)N[C@@H]1C[C@H](C)CN(c2ncc3ncnc(Nc4ccc(Oc5ccc6c(c5)nnn6C)c(C)c4F)c3n2)C1 (single isomer, unassigned) [Compound 203] |
| 100 to 500 | C=CC(=O)N1CCN(c2ccc3ncnc(Nc4cc(C)c(Oc5cc(F)c6c(c5)ncn6C)cc4OC)c3n2)CC1 [Compound 372, 1-(4-(4-((4-((7-fluoro-1-methyl-1H-benzo[d]imidazol-5-yl)oxy)-2-methoxy-5-methylphenyl)amino)pyrido[3,2-d]pyrimidin-6-yl)piperazin-1-yl)prop-2-en-1-one] |
| < 50 | C=CC(=O)N1CCN(c2ccc3ncnc(Nc4ccc(Oc5ccc6c(c5)nnn6C)c(C)c4)c3n2)CC1CF (stereo not shown) [Compound 313, 1-(2-(fluoromethyl)-4-(4-((3-methyl-4-((1-methyl-1H-benzo[d][1,2,3]triazol-5-yl)oxy)phenyl)amino)pyrido[3,2-d]pyrimidin-6-yl)piperazin-1-yl)prop-2-en-1-one] |
| ≥ 1000 | C=CC(=O)N1C2C=C(c3ccc4ncnc(Nc5cc(C)c(Oc6ccc7c(c6)nnn7C)cc5OC)c4n3)CC1CCC2 (stereo not shown) [Compound 413, 1-(3-(4-((2-methoxy-5-methyl-4-((1-methyl-1H-benzo[d][1,2,3]triazol-5-yl)oxy)phenyl)amino)pyrido[3,2-d]pyrimidin-6-yl)-9-azabicyclo[3.3.1]non-2-en-9-yl)prop-2-en-1-one trifluoroacetate] |
| < 50 | C=CC(=O)N[C@@H]1CCCN(c2ncc3ncnc(Nc4ccc(Oc5cc(F)c6c(c5)nnn6C)c(C)c4F)c3n2)C1 [Compound 178, (R)-N-(1-(8-((2-fluoro-4-((7-fluoro-1-methyl-1H-benzo[d][1,2,3]triazol-5-yl)oxy)-3-methylphenyl)amino)pyrimido[5,4-d]pyrimidin-2-yl)piperidin-3-yl)acrylamide] |
| ≥ 1000 | C=CC(=O)N[C@@H]1[C@@H]2C[C@H]1CN(c1ncc3ncnc(Nc4ccc(Oc5ccc6c(c5)nnn6C)c(C)c4)c3n1)C2 [Compound 208, N-((1R,5S,6s)-3-(8-((3-methyl-4-((1-methyl-1H-benzo[d][1,2,3]triazol-5-yl)oxy)phenyl)amino)pyrimido[5,4-d]pyrimidin-2-yl)-3-azabicyclo[3.1.1]heptan-6-yl)acrylamide] |
| 100 to 500 | C=CC(=O)N1CCN(c2ccc3ncnc(Nc4cc(Cl)c(Oc5ccc6c(c5)nnn6C)cc4F)c3n2)CC1 [Compound 244, 1-(4-(4-((5-chloro-2-fluoro-4-((1-methyl-1H-benzo[d][1,2,3]triazol-5-yl)oxy)phenyl)amino)pyrido[3,2-d]pyrimidin-6-yl)piperazin-1-yl)prop-2-en-1-one] |
| < 50 | C=CC(=O)N[C@]1(C)CCN(c2ncc3ncnc(Nc4ccc(Oc5ccc6c(c5)nnn6C)c(C)c4)c3n2)C1 [Compound 144, (R)-N-(3-methyl-1-(8-((3-methyl-4-((1-methyl-1H-benzo[d][1,2,3]triazol-5-yl)oxy)phenyl)amino)pyrimido[5,4-d]pyrimidin-2-yl)pyrrolidin-3-yl)acrylamide] |
| 100 to 500 | C=CC(=O)N1C2CCC1CN(c1ncc3ncnc(Nc4ccc(Oc5ccc6c(c5)nnn6C)c(C)c4)c3n1)C2 [Compound 47, 1-(3-(8-((3-methyl-4-((1-methyl-1H-benzo[d][1,2,3]triazol-5-yl)oxy)phenyl)amino)pyrimido[5,4-d]pyrimidin-2-yl)-3,8-diazabicyclo[3.2.1]octan-8-yl)prop-2-en-1-one] |
